Laboratory results as given in US9856216B2, “Compounds as TNIK, IKKε and TBK1 inhibitors and pharmaceutical composition comprising same” (GREEN CROSS CORPORATION, priority 2015, dated 2018).
Structures can show the parent of a compound that is named as a salt.

The compounds below were run against T1, TNIK (Homo sapiens, UniProt Q9UKE5) (assay: ADP-Glo Kinase Assay, inhibition activity on TNIK). Settings: read-out: TNIK.
T1 construct: purchased Promega V4158
Assay type: biochemical
Procedure: The inhibition activities on TNIK, IKKε and TBK1 were measured by a luminometer, TNIK/IKKε/TBK1 Kinase Enzyme System (Promega, Ca# V4158; Invitrogen, PR8031B, Promega, Ca# V3991) and ADP-Glo Kinase Assay using ADP-Glo™ Kinase Analysis Kit (Promega, Ca# V9101) and a kinase reaction buffer [40 mM Tris(pH 7.5), 20 mM MgCl2, 0.1 mg/mL BSA] in accordance with the manufacturer's protocol.

T1 sequence (Q9UKE5 1-367 limits assumed): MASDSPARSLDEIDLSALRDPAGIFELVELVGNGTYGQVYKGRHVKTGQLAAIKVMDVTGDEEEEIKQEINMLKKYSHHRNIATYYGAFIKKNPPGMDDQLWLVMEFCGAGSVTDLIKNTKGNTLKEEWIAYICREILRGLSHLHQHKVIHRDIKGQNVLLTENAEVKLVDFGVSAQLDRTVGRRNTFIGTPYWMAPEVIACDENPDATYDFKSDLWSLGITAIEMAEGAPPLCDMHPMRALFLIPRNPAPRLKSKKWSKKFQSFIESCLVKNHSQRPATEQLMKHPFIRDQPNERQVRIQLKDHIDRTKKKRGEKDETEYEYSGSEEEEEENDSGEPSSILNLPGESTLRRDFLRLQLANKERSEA

| Compound | IC50 |
| --- | --- |
| O=C(Nc1ccc(Br)c2c1C(=O)NC2)c1ccc(NCCN2CCCCC2)cc1 [Example 284, N-(7-bromo-3-oxoisoindolin-4-yl)-4-((2-(piperidin-1-yl)ethyl)amino)benzamide] | 1.55 µM |
| CN(C)CCCNc1ccc(C(=O)Nc2ccc(Br)c3c2C(=O)NC3)cc1 [Example 286, N-(7-bromo-3-oxoisoindolin-4-yl)-4-((3-(dimethylamino)propyl)amino)benzamide] | 1.48 µM |
| O=C(Nc1ccc(-c2ccco2)c2c1C(=O)NC2)c1ccc(NCCN2CCCC2)cc1 [Example 287, N-(7-(furan-2-yl)-3-oxoisoindolin-4-yl)-4-((2-(pyrrolidin-1-yl)ethyl)amino)benzamide] | 0.66 µM |
| O=C(Nc1ccc(-c2ccco2)c2c1C(=O)NC2)c1ccc(NCCN2CCCCC2)cc1 [Example 289, N-(7-(furan-2-yl)-3-oxoisoindolin-4-yl)-4-((2-(piperidin-1-yl)ethyl)amino)benzamide] | 0.36 µM |
| CN(C)CCNc1ccc(C(=O)Nc2ccc(-c3ccco3)c3c2C(=O)NC3)cc1 [Example 291, 4-((2-(Dimethylamino)ethyl)amino)-N-(7-(furan-2-yl)-3-oxoisoindolin-4-yl)benzamide] | 0.54 µM |
| O=C(Nc1ccc(-c2ccco2)c2c1C(=O)NC2)c1ccc(NCCO)cc1 [Example 292, N-(7-(furan-2-yl)-3-oxoisoindolin-4-yl)-4-((2-hydroxyethyl)amino)benzamide] | 0.47 µM |
| O=C(Nc1ccc(-c2ccco2)c2c1C(=O)NC2)c1ccc(NCCN2CCCCCC2)cc1 [Example 293, 4-((2-(Azepan-1-yl)ethyl)amino)-N-(7-(furan-2-yl)-3-oxoisoindolin-4-yl)benzamide] | 0.48 µM |
| CN1CCN(CCCNc2ccc(C(=O)Nc3ccc(-c4ccco4)c4c3C(=O)NC4)cc2)CC1 [Example 295, N-(7-(furan-2-yl)-3-oxoisoindolin-4-yl)-4-((3-(4-methylpiperazin-1-yl)propyl)amino)benzamide] | 0.52 µM |
| COc1cccc(-c2ccc(NC(=O)c3ccc(NCCCN4CCOCC4)cc3)c3c2CNC3=O)c1OC [Example 296, N-(7-(2,3-dimethoxyphenyl)-3-oxoisoindolin-4-yl)-4-((3-morpholinopropyl)amino)benzamide] | 0.085 µM |
| COc1cccc(-c2ccc(NC(=O)c3ccc(NCCN4CCCC4)cc3)c3c2CNC3=O)c1OC [Example 299, N-(7-(2,3-dimethoxyphenyl)-3-oxoisoindolin-4-yl)-4-((2-(pyrrolidin-1-yl)ethyl)amino)benzamide] | 0.05 µM |
| COc1cccc(-c2ccc(NC(=O)c3ccc(NCCN(C)C)cc3)c3c2CNC3=O)c1OC [Example 301, N-(7-(2,3-dimethoxyphenyl)-3-oxoisoindolin-4-yl)-4-((2-(dimethylamino)ethyl)amino)benzamide] | 0.1 µM |
| COc1ccccc1-c1ccc(NC(=O)c2ccc(NCCCN3CCCC3)cc2)c2c1CNC2=O [Example 302, N-(7-(2-methoxyphenyl)-3-oxoisoindolin-4-yl)-4-((3-(pyrrolidin-1-yl)propyl)amino)benzamide] | 0.16 µM |
| COc1ccccc1-c1ccc(NC(=O)c2ccc(NCCN3CCCC3)cc2)c2c1CNC2=O [Example 303, N-(7-(2-methoxyphenyl)-3-oxoisoindolin-4-yl)-4-((2-(pyrrolidin-1-yl)ethyl)amino)benzamide hydrochloride] | 0.3 µM |
| COc1cccc(-c2ccc(NC(=O)c3ccc(NCCCN(C)C)cc3)c3c2CNC3=O)c1OC [Example 306, N-(7-(2,3-dimethoxyphenyl)-3-oxoisoindolin-4-yl)-4-((3-(dimethylamino)propyl)amino)benzamide] | 0.074 µM |
| COc1ccccc1-c1ccc(NC(=O)c2ccc(NCCCN3CCCCC3)cc2)c2c1CNC2=O [Example 307, N-(7-(2-methoxyphenyl)-3-oxoisoindolin-4-yl)-4-((3-(piperidin-1-yl)propyl)amino)benzamide] | 0.19 µM |
| COc1cccc(-c2ccc(NC(=O)c3ccc(NCCCN4CCCCC4)cc3)c3c2CNC3=O)c1OC [Example 308, N-(7-(2,3-dimethoxyphenyl)-3-oxoisoindolin-4-yl)-4-((3-(piperidin-1-yl)propyl)amino)benzamide] | 0.053 µM |
| Cc1cc(NCCN2CCCC2)ccc1C(=O)Nc1ccc(-c2ccccc2)c2c1C(=O)NC2 [Example 309, 2-Methyl-N-(3-oxo-7-phenylisoindolin-4-yl)-4-((2-(pyrrolidin-1-yl)ethyl)amino)benzamide] | 4.82 µM |
| COc1cccc(-c2ccc(NC(=O)c3ccc(NCCO)cc3)c3c2CNC3=O)c1OC [Example 311, N-(7-(2,3-dimethoxyphenyl)-3-oxoisoindolin-4-yl)-4-((2-hydroxyethyl)amino)benzamide] | 0.052 µM |
| COc1cccc(-c2ccc(NC(=O)c3ccc(N4CCOCC4)cc3)c3c2CNC3=O)c1OC [Example 312, N-(7-(2,3-dimethoxyphenyl)-3-oxoisoindolin-4-yl)-4-morpholinobenzamide] | 0.73 µM |
| COc1cccc(-c2ccc(NC(=O)c3ccc(NCCN4CCN(C)CC4)cc3)c3c2CNC3=O)c1OC [Example 314, N-(7-(2,3-dimethoxyphenyl)-3-oxoisoindolin-4-yl)-4-((2-(4-methylpiperazin-1-yl)ethyl)amino)benzamide] | 0.086 µM |
| COc1cccc(-c2ccc(NC(=O)c3ccc(NCCCN4CCN(C)CC4)cc3)c3c2CNC3=O)c1OC [Example 316, N-(7-(2,3-dimethoxyphenyl)-3-oxoisoindolin-4-yl)-4-((3-(4-methylpiperazin-1-yl)propyl)amino)benzamide] | 0.057 µM |
| COc1ccccc1-c1ccc(NC(=O)c2ccc(NCCN3CCCC3)cc2)c2c1CNC2=O [Example 318, N-(7-(2-methoxyphenyl)-3-oxoisoindolin-4-yl)-4-((2-(pyrrolidin-1-yl)ethyl)amino)benzamide] | 0.26 µM |
| CN1CCN(c2ccc(C(=O)Nc3ccc(-c4ccccc4)c4c3C(=O)NC4)cc2)CC1 [Example 319, 4-(4-Methylpiperazin-1-yl)-N-(3-oxo-7-phenylisoindolin-4-yl)benzamide] | 2.7 µM |
| COCCNc1ccc(C(=O)Nc2ccc(-c3ccccc3)c3c2C(=O)NC3)cc1 [Example 321, 4-((2-Methoxyethyl)amino)-N-(3-oxo-7-phenylisoindolin-4-yl) benzamide] | 0.5 µM |

Further compounds by falling IC50, results first:

| IC50 | Compound |
| --- | --- |
| 8.8 µM | O=C(Nc1ccc(-c2ccccc2)c2c1C(=O)NC2)c1ccc(N2CCOCC2)cc1 [Example 320, 4-Morpholino-N-(3-oxo-7-phenylisoindolin-4-yl)benzamide] |
| 1.13 µM | O=C(Nc1ccc(Br)c2c1C(=O)NC2)c1ccc(NCCN2CCCCCC2)cc1 [Example 285, 4-((2-(azepan-1-yl)ethyl)amino)-N-(7-bromo-3-oxoisoindolin-4-yl)benzamide] |
| 0.45 µM | COCCNc1ccc(C(=O)Nc2ccc(-c3ccco3)c3c2C(=O)NC3)cc1 [Example 288, N-(7-(furan-2-yl)-3-oxoisoindolin-4-yl)-4-((2-methoxyethyl)amino)benzamide] |
| 0.45 µM | COc1c(F)cccc1-c1ccc(NC(=O)c2ccc(NCCN3CCCC3)cc2)c2c1CNC2=O [Example 313, N-(7-(3-fluoro-2-methoxyphenyl)-3-oxoisoindolin-4-yl)-4-((2-(pyrrolidin-1-yl)ethyl)amino)benzamide] |
| 0.39 µM | COCCCNc1ccc(C(=O)Nc2ccc(-c3cccnc3OC)c3c2C(=O)NC3)cc1 [Example 310, 4-((3-Methoxypropyl)amino)-N-(7-(2-methoxypyridin-3-yl)-3-oxoisoindolin-4-yl)benzamide] |
| 0.36 µM | O=C(Nc1ccc(-c2ccccc2)c2c1C(=O)NC2)c1ccc(NCCN2CCCC2)cc1 [Example 317, N-(3-oxo-7-phenylisoindolin-4-yl)-4-((2-(pyrrolidin-1-yl)ethyl)amino)benzamide] |
| 0.23 µM | CN1CCN(CCNc2ccc(C(=O)Nc3ccc(-c4ccco4)c4c3C(=O)NC4)cc2)CC1 [Example 294, N-(7-(furan-2-yl)-3-oxoisoindolin-4-yl)-4-((2-(4-methylpiperazin-1-yl)ethyl)amino)benzamide] |
| 0.2 µM | COc1ccccc1-c1ccc(NC(=O)c2ccc(NCCN(C)C)cc2)c2c1CNC2=O [Example 305, 4-((2-(Dimethylamino)ethyl)amino)-N-(7-(2-methoxyphenyl)-3-oxoisoindolin-4-yl)benzamide] |
| 0.18 µM | O=C(Nc1ccc(-c2ccco2)c2c1C(=O)NC2)c1ccc(NCCN2CCOCC2)cc1 [Example 290, N-(7-(furan-2-yl)-3-oxoisoindolin-4-yl)-4-((2-morpholinoethyl)amino)benzamide] |
| 0.11 µM | COCCNc1ccc(C(=O)Nc2ccc(-c3cccc(OC)c3OC)c3c2C(=O)NC3)cc1 [Example 300, N-(7-(2,3-dimethoxyphenyl)-3-oxoisoindolin-4-yl)-4-((2-methoxyethyl)amino)benzamide] |
| 0.078 µM | COc1cccc(-c2ccc(NC(=O)c3ccc(NCCN4CCCCC4)cc3)c3c2CNC3=O)c1OC [Example 298, N-(7-(2,3-dimethoxyphenyl)-3-oxoisoindolin-4-yl)-4-((2-(piperidin-1-yl)ethyl)amino)benzamide] |
| 0.075 µM | COc1cccc(-c2ccc(NC(=O)c3ccc(NCCN4CCOCC4)cc3)c3c2CNC3=O)c1OC [Example 297, N-(7-(2,3-dimethoxyphenyl)-3-oxoisoindolin-4-yl)-4-((2-morpholinoethyl)amino)benzamide] |
| 0.073 µM | COc1cccc(-c2ccc(NC(=O)c3ccc(NCCN4CCCC4)cc3)c3c2CNC3=O)c1OC [Example 304, N-(7-(2,3-dimethoxyphenyl)-3-oxoisoindolin-4-yl)-4-((2-(pyrrolidin-1-yl)ethyl)amino)benzamide hydrochloride] |
| 0.037 µM | COc1cccc(-c2ccc(NC(=O)c3ccc(NCCN)cc3)c3c2CNC3=O)c1OC [Example 315, 4-((2-Aminoethyl)amino)-N-(7-(2,3-dimethoxyphenyl)-3-oxoisoindolin-4-yl)benzamide] |
